Assay results from ChEMBL document CHEMBL4177539, “Discovery of N-((3R,4R)-4-Fluoro-1-(6-((3-methoxy-1-methyl-1H-pyrazol-4-yl)amino)-9-methyl-9H-purin-2-yl)pyrrolidine-3-yl)acrylamide (PF-06747775) through Structure-Based Drug Design: A High Affinity Irreversible Inhibitor Targeting Oncogenic EGFR Mutants with Selectivity over Wild-Type EGFR” (J Med Chem, 2017).

Tests used:
[1] = physchem; settings: octanol/water
[2] = system: Hepatocyte; settings: human, hepatocytes, 1 µM
[3] = in vitro; settings: dog, MDCK
[4] = in vitro; settings: human, liver microsomes
[5] = species: Homo sapiens; assay: Selectivity index, ratio of IC50 for wild-type EGFR autophosphorylation in human A549 cells to IC50 for EGFR T790M/L858R double mutant autophosphorylation in human H1975 cells; type: cell-based
[6] = target: Epidermal growth factor receptor (Homo sapiens, UniProt P00533, EX19DEL)
Chain of Epidermal growth factor receptor (Homo sapiens, UniProt P00533, EX19DEL) (P00533 whole entry, looked up, stated change not applied): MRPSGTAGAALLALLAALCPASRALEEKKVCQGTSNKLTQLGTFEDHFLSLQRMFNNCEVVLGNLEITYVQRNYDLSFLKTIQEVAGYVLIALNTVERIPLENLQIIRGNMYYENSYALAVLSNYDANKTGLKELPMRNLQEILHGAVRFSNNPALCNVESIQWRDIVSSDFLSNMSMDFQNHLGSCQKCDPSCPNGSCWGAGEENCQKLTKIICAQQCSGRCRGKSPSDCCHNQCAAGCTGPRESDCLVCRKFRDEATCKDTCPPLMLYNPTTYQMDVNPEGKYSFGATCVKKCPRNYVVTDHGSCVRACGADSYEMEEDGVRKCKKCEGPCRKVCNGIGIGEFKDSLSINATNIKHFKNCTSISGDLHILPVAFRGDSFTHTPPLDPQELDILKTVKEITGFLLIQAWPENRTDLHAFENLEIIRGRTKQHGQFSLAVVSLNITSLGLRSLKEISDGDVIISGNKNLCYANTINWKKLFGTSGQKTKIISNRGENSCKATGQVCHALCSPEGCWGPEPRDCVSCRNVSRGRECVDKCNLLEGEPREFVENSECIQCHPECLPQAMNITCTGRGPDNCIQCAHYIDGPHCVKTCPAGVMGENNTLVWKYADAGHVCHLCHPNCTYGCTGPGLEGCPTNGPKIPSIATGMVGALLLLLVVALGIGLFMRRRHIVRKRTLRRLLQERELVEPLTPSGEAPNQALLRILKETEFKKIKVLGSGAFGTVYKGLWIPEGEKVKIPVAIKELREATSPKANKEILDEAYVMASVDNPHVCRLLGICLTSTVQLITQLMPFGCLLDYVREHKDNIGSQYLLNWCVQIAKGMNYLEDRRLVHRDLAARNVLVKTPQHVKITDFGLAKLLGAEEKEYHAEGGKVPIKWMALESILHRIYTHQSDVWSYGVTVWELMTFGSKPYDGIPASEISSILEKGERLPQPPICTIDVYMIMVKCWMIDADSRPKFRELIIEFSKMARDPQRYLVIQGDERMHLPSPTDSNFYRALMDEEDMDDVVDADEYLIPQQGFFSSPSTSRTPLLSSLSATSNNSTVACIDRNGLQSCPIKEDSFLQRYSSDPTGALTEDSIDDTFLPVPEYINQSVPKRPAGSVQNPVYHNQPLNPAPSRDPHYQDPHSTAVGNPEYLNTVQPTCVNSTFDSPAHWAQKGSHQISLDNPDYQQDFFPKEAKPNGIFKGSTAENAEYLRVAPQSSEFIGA

[7] = target: Epidermal growth factor receptor (Homo sapiens, UniProt P00533)
Chain of Epidermal growth factor receptor (Homo sapiens, UniProt P00533) (P00533 whole entry): as the sequence (P00533 whole entry, looked up, stated change not applied) above

[8] = target: Epidermal growth factor receptor (Homo sapiens, UniProt P00533, EX19DEL/T790M)
Chain of Epidermal growth factor receptor (Homo sapiens, UniProt P00533, EX19DEL/T790M) (P00533 whole entry, looked up, stated change not applied): as above

Row | logD [1] | CLH [2] [µL/min/mg] | Papp [3] [×10⁻⁶ cm/s] | microsomal CLint at […], 1 µM [4] [µL/min/mg] | IC50 [6] [nM] | IC50 [7] [nM] | IC50 [8] [nM] | SMILES | Ratio IC50 [5]
1 | 2.6 | 23 | 18 | 32 |  |  |  | C=CC(=O)N[C@@H]1CN(c2nc(Nc3cn(C)nc3OC)c3ncn(C(C)C)c3n2)C[C@H]1F | 
2 | 2.2 |  |  |  |  |  |  | C=CC(=O)N1C[C@@H]2CN(c3nc(Nc4cnn(C)c4)c4ncn(C(C)C)c4n3)C[C@@H]2C1 | 16
3 | 2.6 |  |  | 30 | 16 | 1450 | 4 | C=CC(=O)N[C@@H]1CN(c2nc(Nc3cn(C)nc3C)c3ncn(C(C)C)c3n2)C[C@H]1F | 56
4 | 2.5 |  |  |  |  |  |  | C=CC(=O)N1CC[C@@H](Nc2nc(Nc3ccc(N4CCN(C)CC4)cc3)c3ncn(C(C)C)c3n2)C1 | 13
